# Results as given in patent publication US20230233592A1, “PHARMACEUTICAL COMPOSITION FOR THE CHEMICAL INHIBITION OF TGS1 IN THE THERAPEUTIC TREATMENT OF TELOMEROPATHIES” (priority 2020, published 2023).
# “Also recorded” adds a separate entry of the source. Like-named read-outs stand apart in the source and are kept apart here.
# Experiments:
# [1] = biological target: T1, recombinant TGS1 enzyme fused to protein GST (Homo sapiens, UniProt Q96RS0); assay: In vitro hypermethylation assay with recombinant GST-TGS1 enzyme; assay type: biochemical; conditions: Sinefungin 100 μM; 50 μM [3H-CH3]AdoMet; 5 mM m7GTP
# T1 construct: made in house; host or cells: bacterial cells
# T1 sequence (Q96RS0 whole entry, the tested form may be a part): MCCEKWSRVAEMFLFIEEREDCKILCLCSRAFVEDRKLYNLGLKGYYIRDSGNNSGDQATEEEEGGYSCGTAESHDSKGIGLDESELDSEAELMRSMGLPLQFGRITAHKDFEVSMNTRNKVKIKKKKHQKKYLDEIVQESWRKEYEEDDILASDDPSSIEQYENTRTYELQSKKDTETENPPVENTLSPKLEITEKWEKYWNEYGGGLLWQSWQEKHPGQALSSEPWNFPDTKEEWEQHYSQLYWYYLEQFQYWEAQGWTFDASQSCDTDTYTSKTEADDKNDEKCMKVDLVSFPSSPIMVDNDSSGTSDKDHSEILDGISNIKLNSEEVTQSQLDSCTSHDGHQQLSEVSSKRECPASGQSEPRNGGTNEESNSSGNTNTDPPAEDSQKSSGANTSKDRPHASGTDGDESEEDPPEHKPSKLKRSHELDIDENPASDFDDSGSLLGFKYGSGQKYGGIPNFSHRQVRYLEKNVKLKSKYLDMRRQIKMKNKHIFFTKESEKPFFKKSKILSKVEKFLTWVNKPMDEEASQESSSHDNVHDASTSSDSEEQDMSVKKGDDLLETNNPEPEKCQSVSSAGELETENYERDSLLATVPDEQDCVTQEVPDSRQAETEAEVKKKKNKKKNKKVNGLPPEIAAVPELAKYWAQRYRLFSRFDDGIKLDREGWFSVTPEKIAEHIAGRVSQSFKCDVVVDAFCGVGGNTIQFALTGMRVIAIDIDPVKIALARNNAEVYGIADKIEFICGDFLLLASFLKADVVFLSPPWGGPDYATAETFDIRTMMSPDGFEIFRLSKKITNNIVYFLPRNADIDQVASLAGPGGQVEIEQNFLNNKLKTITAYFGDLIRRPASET
# Description: Sinefungin, analogous of S-adenosyl-methionine, inhibits the reaction of hypermethylation catalyzed by TGS1. (A) In vitro assay of hypermethylation performed by incubating 1 μg of recombinant GST-TGS1 or GST with 50 μM [^3H—CH3]AdoMet (SAM) and with 5 mM m^7GTP (MMG), in presence or not of 100 μM Sinefungin. Aliquots of the reaction mixture are placed on cellulose-polyethyleneimine and the reaction products are resolved by means of TLC. The incorporation of ^3H—CHs in the methylated derivatives of MMg (DMG or TMG) is quantified by means of liquid scintillation counting. (B) Control reactions performed without protein or GST. (C) The entity of transfer of ^3H-methyl to the dinucleotide cap is shown. The Sinefungin capability of inhibiting the methyl-transferase activity of TGS1 enzyme was evaluated by means of recombinant in vitro hypermethylation assay by using recombinant TGS1 enzyme fused to protein GST. After having purified TGS1-GST from bacterial cells, still immobilized on glutathione beads, or GST alone, the assay was performed in presence or absence of Sinefungin, by using [^3H—CH3]AdoMet as methyl donor and m^7GTP (MMG) as substrate.
# UMUC3 cells [2] = assay: qRT-PCR analysis of hTR levels in UMUC3 cells; assay type: cell-based, human; conditions: Sinefungin 100 μM for 10 days
# Description: (A, E) qRT-PCR analysis of levels of hTR on RNA of UMUC3 cells (A) or of the cell line HeLa PARN KO (E), treated or not with 50 μM Sinefungin for 10 days. The bars represent the variation in the levels of hTR in the treated cells and in the not treated cells, obtained by three replicates. The effects of Sinefungin were tested on the tumour cell line of UMUC3 bladder, characterized by limiting levels of hTR for the activity telomerase and by short telomeres (Xu L. & Blackburn E. H. Mol Cell 28, 2007). The UMUC3 cells were treated with Sinefungin 100 μM for 10 days, and then the levels of RNA hTR were determined. […] In order to confirm that Sinefungin is capable of striking specifically the TGS1 enzyme, a treatment with Sinefungin was tested on clones of UMUC3 cells, characterized by CRISPR-induced mutations in TGS1 (Chen et al.) (FIG. 3C), inside thereof there is a lengthening of the telomeres over time due to a deficiency of TGS1 (FIG. 3D). Control cells and mutant cells were cultivated for 46 days in presence or absence of Sinefungin.
# UMUC3 cells [3] = assay: Telomere Restriction Fragment (TRF) analysis in TGS1-proficient UMUC3 cells; assay type: cell-based, human; conditions: TGS1-proficient UMUC3 cells cultivated with Sinefungin, over 15 population doublings / 46 days
# Description: (B,D,F) Determination of the telomeric length by means of Telomere Restriction Fragment analysis (TRF, performed according to the methods described in Roake, C. M. et al. Mol Cell 74, 2019) in two cell types characterized by short telomeres: the UMUC3 tumour cell line and the HeLa cells lacking in TGS1 or deadenylase PARN. […] No lengthening of telomeres in the not-treated parental cells is observed (lanes 9-10). The effects of Sinefungin were tested on the tumour cell line of UMUC3 bladder, characterized by limiting levels of hTR for the activity telomerase and by short telomeres (Xu L. & Blackburn E. H. Mol Cell 28, 2007). The UMUC3 cells were treated with Sinefungin 100 μM for 10 days, and then the levels of RNA hTR were determined. […] In order to confirm that Sinefungin is capable of striking specifically the TGS1 enzyme, a treatment with Sinefungin was tested on clones of UMUC3 cells, characterized by CRISPR-induced mutations in TGS1 (Chen et al.) (FIG. 3C), inside thereof there is a lengthening of the telomeres over time due to a deficiency of TGS1 (FIG. 3D). Control cells and mutant cells were cultivated for 46 days in presence or absence of Sinefungin.
# HeLa PARN KO cells [4] = assay: qRT-PCR analysis of hTR levels in HeLa PARN KO cells; assay type: cell-based, human; conditions: 50 μM Sinefungin, 10 days
# Description: (A, E) qRT-PCR analysis of levels of hTR on RNA of UMUC3 cells (A) or of the cell line HeLa PARN KO (E), treated or not with 50 μM Sinefungin for 10 days. The bars represent the variation in the levels of hTR in the treated cells and in the not treated cells, obtained by three replicates. The effects of Sinefungin were tested on mutant HeLa cells for PARN deadenylase (PARN KO) enzyme, one of the causative factors of congenital dyskeratosis (Tummala et al., 2015) (Roake C. M. et al. Mol cell 74, 2019). PARN KO cells, obtained in the laboratory of […] (Stanford University), are characterized by short telomeres, due to the reduced levels of RNA component of telomerase.
# HeLa PARN KO cells [5] = assay: Telomere Restriction Fragment (TRF) analysis in HeLa PARN KO cells; assay type: cell-based, human; conditions: 50 μM Sinefungin, 46 days
# Description: (B,D,F) Determination of the telomeric length by means of Telomere Restriction Fragment analysis (TRF, performed according to the methods described in Roake, C. M. et al. Mol Cell 74, 2019) in two cell types characterized by short telomeres: the UMUC3 tumour cell line and the HeLa cells lacking in TGS1 or deadenylase PARN. (F) HeLa PARN KO cells were treated or not with 50 μM of Sinefungin for the period of time indicated in culture. Due to the reduced levels of RNA component of telomerase, the average telomeric length is shorter in the PARN KO cells (lane 13) rather than in the parental HeLa cell line. (4.5 kb vs 7.5 kb). […] The effects of Sinefungin were tested on mutant HeLa cells for PARN deadenylase (PARN KO) enzyme, one of the causative factors of congenital dyskeratosis (Tummala et al., 2015) (Roake C. M. et al. Mol cell 74, 2019). PARN KO cells, obtained in the laboratory of […] (Stanford University), are characterized by short telomeres, due to the reduced levels of RNA component of telomerase.
# [6] = system: fungal cap methyltransferase enzyme; conditions: Chrebet et al. 2005; cited from earlier work
# Toxoplasma gondii = conditions: mice infected with Toxoplasma gondii; cited from earlier work
# [7] = high doses, goats; cited from earlier work
# [8] = high doses, dogs; cited from earlier work
# [9] = biological target: T2, SET7/9 lysine methyltransferase (Mus musculus, UniProt Q8VHL1); conditions: murine model for renal fibrosis; cited from earlier work
# T2 construct: host or cells: murine model of renal fibrosis
# T2 sequence (Q8VHL1 1-366): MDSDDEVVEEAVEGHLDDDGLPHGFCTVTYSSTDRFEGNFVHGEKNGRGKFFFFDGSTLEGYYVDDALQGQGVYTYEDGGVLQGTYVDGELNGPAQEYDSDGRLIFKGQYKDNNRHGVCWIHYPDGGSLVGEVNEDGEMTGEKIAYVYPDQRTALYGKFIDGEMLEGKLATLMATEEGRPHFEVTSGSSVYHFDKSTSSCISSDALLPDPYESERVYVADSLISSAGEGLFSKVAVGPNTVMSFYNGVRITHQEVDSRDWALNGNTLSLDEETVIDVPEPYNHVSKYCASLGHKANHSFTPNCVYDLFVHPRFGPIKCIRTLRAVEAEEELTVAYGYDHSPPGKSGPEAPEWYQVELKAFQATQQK
# RNA hypermethylase TGS1 = RNA hypermethylase TGS1 (Homo sapiens, UniProt Q96RS0); conditions: Yedavalli & Jeang 2010; cited from earlier work
# Chain of RNA hypermethylase TGS1 (Q96RS0 whole entry): as the sequence (Q96RS0 whole entry, the tested form may be a part) above
# Leishmania = conditions: cited from earlier work
substance,measurement,setting,value
Sinefungin,"methyl-transferase activity of TGS1 (3H-methyl transfer to m7GTP, TLC / liquid scintillation)",[1],inhibit the methyl-transferase activity of TGS1
same,increase in the levels of hTR,UMUC3 cells [2],1.5 times
same,telomere length (TRF),UMUC3 cells [3],A lengthening of telomeres takes place in the treated control cells; also recorded: a lengthening of the telomeres was observed
same,levels of hTR,HeLa PARN KO cells [4],a significative increase in the levels of hTR
same,telomere length (TRF),HeLa PARN KO cells [5],a lengthening of telomeres; also recorded: a substantial increase in the telomere length
same,inhibition of fungal cap methyltransferase with respect to the human ortholog,[6],ten times more effectively
same,survival of infected mice,Toxoplasma gondii,increased the survival of mice
same,nephrotoxicity,[7],nephrotoxic effects were detected
same,nephrotoxicity,[8],nephrotoxic effects were detected
same,renal fibrosis pathology,[9],an improvement in the pathology
same,inhibition of TGS1 in human cells,RNA hypermethylase TGS1,inhibits RNA hypermethylase TGS1
same,survival of infected mice,Leishmania; mice infected with various isolates of Leishmania,increased the survival of mice
same,toxic effects in infected mice,"Leishmania; mouse, in vivo",without showing clinically detectable toxic effects
